In a melting point compilation (Tetko et al.; mined from patent text by program, amines drawn as free bases though some values may be those of a salt):

First: CN1CCN(C(=O)c2ccc([N+](=O)[O-])cc2)CC1
Second: CN1CCN(c2cccc3ccc(Nc4ncccc4NC(=O)c4ccccc4)cc23)CC1
The melting point of the first is lower: 100 to 101 °C for the first, 205 to 207 °C for the second.

Compared with `O=C(Nc1cc(-c2ccccc2)on1)Nc1cccc2c1C1CCCCN1C2=O` (stereo not given), `CN1C(=O)CN=C(c2ccccc2F)c2cc(NC(=O)N3CCCC3)ccc21` is lower in melting point: 248 °C for the first, 159 to 160 °C for the second.

First: COC(=O)c1cc(OC(C)=O)c2cc[nH]c2c1
Second: COC(=O)c1cn2c(C)c(-c3ccccc3)sc2n1
The melting point of the first is higher: 160 to 162 °C for the first, 155 to 157 °C for the second.

Compared with `COc1cccc2c1C13CCN(C(=O)C4CCC4)C(C2)C1CCC(=O)C3` (stereo not given), `CCCC(=O)SC1CCN(C(C(=O)C2CC2)c2ccccc2F)CC1` (stereo not given) is lower in melting point: 125 to 126 °C for the first, 97 to 98 °C for the second.

First: O=c1c2cc(F)c(N3CCCC3)cc2n(-c2ccccc2F)c(=O)n1O
Second: O=C(O)c1cn(C2CC2)c2cc(N3CC4CC4C3)c(F)cc2c1=O (stereo not given)
The melting point of the first is lower: 235 to 237 °C for the first, 290 °C for the second.

Compared with `Cc1c(C(N)=O)oc2nn(C)c(C)c12`, `CC(=O)c1nc(-c2ccc(O)cc2)n(C)c1C` is higher in melting point: 148 to 150 °C for the first, 198 to 202 °C for the second.

First: CCOC(=O)c1ccc(CSc2nnc(S)s2)cc1
Second: CCc1ccc2scc(CCNC(C)=O)c2c1
The melting point of the first is higher: 114 to 115 °C for the first, 87 to 88 °C for the second.

First: Cc1nc(-n2cnn(Cc3ccc(C(F)(F)F)cc3)c2=O)sc1C(=O)NCc1cccnc1
Second: Cc1nc(-n2ccc3c(O)cccc3c2=O)sc1C(=O)NCc1ccccc1
The melting point of the first is lower: 156 to 158 °C for the first, 218 to 221 °C for the second.

First: CCOC(=O)Nc1ccc(C(C)C(O)(Cn2cncn2)c2ccc(F)cc2F)cn1 (stereo not given)
Second: CCOC(=O)c1c(Cn2cncn2)nc2sc(C)c(C)c2c1-c1ccc(OC)c(OC)c1
The melting point of the first is higher: 167 to 168 °C for the first, 136 to 137 °C for the second.

First: COC(=O)CCCCCNC(=O)C(CO)NS(=O)(=O)c1ccc(Cl)cc1 (racemic)
Second: CCS(=O)(=O)N[C@H](C(=O)NCCc1ccc(OCc2ccc(Cl)s2)c(OC)c1)C(C)C
The melting point of the first is lower: 83 to 86 °C for the first, 124 to 127 °C for the second.

First: COc1cc2c(Nc3ccc(C)c(O)c3)ncnc2cc1OCc1cccnc1
Second: CNc1nc(-c2cccc(C(=O)Nc3ccccc3)c2)c2cc(OC)c(OC)cc2n1
The melting point of the first is higher: 258 to 259 °C for the first, 242 to 244 °C for the second.

First: NC1c2ccccc2-c2[nH]c(=O)c3nccn3c21 (stereo not given)
Second: CC(C)CN1C(=O)CCC(c2ccccc2Cl)c2cc(Cl)ccc21 (stereo not given)
The melting point of the first is higher: 240 °C for the first, 152 to 154 °C for the second.

Going from `ON=C1CC(c2ccccc2)Cc2ccccc21` (stereo not given) to `O=C1CCc2cc(-c3ccccc3)ccc21`, the melting point falls from 195 °C to 75 °C.

First: CON1CCC2(CC1)NC(=O)C(c1cc(Br)c(F)cc1C)=C2O
Second: CC[C@@]1(c2cc(F)cc(OCc3ccc4c(ccc(=O)n4C)c3)c2)CCO[C@H](C)C1 (racemic)
The melting point of the first is higher: 229 to 230 °C for the first, 99 °C for the second.

First: Nc1ccc(-c2cc3c(Oc4ccc(Cl)cc4)cncc3s2)cc1
Second: NS(=O)(=O)c1ccc(-c2noc(-c3cnn4c(C(F)(F)F)cc(-c5ccc(Cl)cc5)nc34)n2)s1
The melting point of the first is lower: 178 to 182 °C for the first, 294 °C for the second.

First: Nc1cccc2c1ccn2S(=O)(=O)c1cccc2ccccc12
Second: CC(C)c1cccc(C(C)C)c1NC(=O)CNC(c1ccccc1)c1ccc(Br)cc1 (stereo not given)
The melting point of the first is lower: 133 to 134 °C for the first, 154 to 155 °C for the second.

Compared with `O=S(=O)(c1c(F)c(F)c(F)c(F)c1F)N1CCCC(c2ccc(F)cc2)=N1`, `CS(=O)(=O)c1ccc(-c2cnn(CC(=O)c3ccc(F)cc3F)c(=O)c2-c2ccc(F)cc2)cc1` is higher in melting point: 140 to 141 °C for the first, 191 to 192 °C for the second.

First: Cc1nc2cc(C(C)(C)C)c(O)cc2o1
Second: CC(C)(C)c1cc(-n2ccc(=O)[nH]c2=O)cc(Br)c1Cl
The melting point of the first is lower: 264 to 266 °C for the first, > 280 °C for the second.

Compared with `Nc1ccc(OCCN2CCN(c3nsc4ccccc34)CC2)cc1`, `CN1CCN(CC2=NC(NC(=O)OCc3ccccc3)C(=O)N(C(C)(C(N)=O)c3ccccc3)c3ccccc32)CC1` (stereo not given) is lower in melting point: 128 °C for the first, 65 to 70 °C for the second.

First: CC(=O)c1cccc(NC(=O)NC2N=C(C(C)C)c3ccccc3N(CC(=O)N3CC4CCC(CC4)C3)C2=O)c1 (stereo not given)
Second: COC(=O)Cc1cccc(NC(=O)NC2C(=O)Nc3ccccc3NC2=O)c1
The melting point of the first is lower: 138 to 140 °C for the first, > 300 °C for the second.

First: CCCCCCCCCCNC(=O)OC1CCN(C(=O)OCCCCCCNC(=O)Oc2ccc(Oc3ccccc3)cc2)CC1
Second: CCCCC(=O)N1CCC(c2nc(-c3ccc(-c4ccccc4)cc3)c[nH]2)CC1
The melting point of the first is lower: 87 to 91 °C for the first, 215 to 216 °C for the second.

First: CCc1nc2cc(S(N)(=O)=O)c(Cl)cc2n1-c1ccc(CCOC(=O)NS(=O)(=O)c2ccc(C)cc2)cc1
Second: CC(=O)Nc1ccc(Sc2c([N+](=O)[O-])cc(C(=O)O)cc2S(N)(=O)=O)cc1
The melting point of the first is lower: 110 to 115 °C for the first, 168 °C for the second.

First: c1cc(Oc2ccc3c(c2)CCN3)ccn1
Second: COc1ccc(-c2ccc(C=O)cc2)cc1
The melting point of the first is higher: 116 to 118 °C for the first, 99 to 100 °C for the second.

First: Cc1nnc2n1-c1ccc(Cl)cc1C(c1ccccc1)N2 (stereo not given)
Second: Clc1nc(OCc2ccccc2)c2[nH]cnc2n1
The melting point of the first is higher: 262 to 265 °C for the first, 195 to 196 °C for the second.

First: O=C1CC2SCCCN12 (stereo not given)
Second: O=C1OCCC12Sc1cc(NO)ccc1C2=O (stereo not given)
The melting point of the first is lower: 145 to 147 °C for the first, 184 to 186 °C for the second.

First: O=C(Cc1ccccc1I)Nc1ccccc1I
Second: O=C(NCc1cccs1)c1cc2ccnc(N(Cc3ccccc3)Cc3ccccc3)c2[nH]1
The melting point of the first is higher: 160 to 163 °C for the first, 152 to 154 °C for the second.

First: Cc1cc(C(=O)O)c(S(N)(=O)=O)o1
Second: CCCCCSc1cc(C(=O)O)cc(N)c1Oc1ccccc1
The melting point of the first is higher: 191 °C for the first, 98 °C for the second.

First: CC(=O)Nc1ccccc1C(=O)C=CN(C)C
Second: COC(=O)COc1ccc(C(=O)NC(=O)Nc2ccc(C#N)cc2)cc1
The melting point of the first is lower: 90 to 95 °C for the first, 204 to 207 °C for the second.

First: O=c1c2c([nH]n1-c1ccc(Cl)cc1)-c1cc(Cl)ccc1SC2
Second: O=C(NN1CCCCC1)c1ccc(-c2ccc(Cl)cc2)c(-c2ccc(Cl)cc2Cl)c1
The melting point of the first is higher: 237 to 240 °C for the first, 182 °C for the second.

First: O=C(O)c1ccc2c(c1)C1(c3ccccc3-2)c2ccccc2-c2ccc(C(=O)O)cc21
Second: CCCCc1oc2ccccc2c1C(Sc1nc2ccccc2s1)c1ccc(-c2ccc(O)cc2)cc1 (stereo not given)
The melting point of the first is higher: 352 °C for the first, 130 to 132 °C for the second.

Compared with `CC(O)N1CCC(=C2c3ccccc3C=Cc3ccc(S(=O)(=O)C(F)(F)F)cc32)CC1` (stereo not given), `CN(C)CCOc1nc(NCc2cccs2)nc(Nc2cccc(C(F)(F)F)c2)n1` is lower in melting point: 141 to 144 °C for the first, 51 to 53 °C for the second.

First: [N-]=[N+]=Nc1nc2c(N)ncnc2n1C1CC(O)C(CO)O1 (stereo not given)
Second: NC(N)=Nc1nc(-c2ccc(CNC(=O)c3ccco3)o2)cs1
The melting point of the first is lower: 177 to 179 °C for the first, 246 °C for the second.

Compared with `Cc1[nH]c(C#N)c(C)c1-c1ccnc(Nc2cccc([N+](=O)[O-])c2)n1`, `CNc1nccc(-c2c(-c3ccc(F)cc3)ncn2C2CC(C)(C)NC(C)(C)C2)n1` is lower in melting point: 258 to 259 °C for the first, 221 to 222 °C for the second.

First: O=c1c(Cc2cccnc2)cn2c3cc(Cl)ccc3c3cc(OCCCO)cc1c32
Second: CCCOc1ccc(S(=O)(=O)NCCN(C)C)cc1-c1nc2cc3nc[nH]c3cc2c(=O)[nH]1
The melting point of the first is lower: 137 to 139 °C for the first, 212 to 214 °C for the second.

First: CCCCO[PH](=O)Cc1cc(C(C)(C)C)c(O)c(C(C)(C)C)c1 (stereo not given)
Second: COc1cc(F)c(CNCCc2ccc(O)cc2)cc1O
The melting point of the first is lower: 85 to 87 °C for the first, 160 to 162 °C for the second.
